Legend:
[1] = system: HAUSP TRAF-like domain (residues 1–206); assay: gel filtration binding assay with HAUSP (residues 1–206); conditions: Superdex-200, 25 mM Tris pH 8.0, 100 mM NaCl, 2 mM DTT, 4 °C, SDS-PAGE/Coomassie, protein alone, no competitor
Protocol: (§1) Size-exclusion chromatography (gel filtration), using a Superdex-200 column (10/30, Amersham Pharmacia Biotech, Piscataway, New Jersey, United States), was employed to carry out all the in vitro binding assays. Proteins subjected to binding tests were incubated at 4 °C for at least 45 min to allow equilibrium to be reached. The flow rate was 0.5 ml/min, and the buffer contained 25 mM Tris (pH 8.0), 100 mM NaCl, and 2 mM DTT. All fractions were collected at 0.5 ml each. Aliquots of relevant fractions were mixed with SDS sample buffer and subjected to SDS-polyacrylamide gel electrophoresis. The proteins were visualized by Coomassie Blue staining. The column was calibrated with molecular-mass standards.

[2] = molecular target: T1, HAUSP TRAF-like domain (residues 53–206) (Homo sapiens, UniProt Q93009); assay: gel filtration binding assay of MDM2 fragments with HAUSP TRAF-like domain; conditions: Superdex-200, HAUSP residues 53–206, 25 mM Tris pH 8.0, 100 mM NaCl, 2 mM DTT, 4 °C
T1 construct: GST (N); made in house; host or cells: Escherichia coli BL21(DE3), vector pGEX-2T
Protocol: as §1

full-length HAUSP = assay: gel filtration binding assay of MDM2 with full-length HAUSP; conditions: Superdex-200, 25 mM Tris pH 8.0, 100 mM NaCl, 2 mM DTT, 4 °C
Protocol: as §1

T1 sequence (Q93009 53-206): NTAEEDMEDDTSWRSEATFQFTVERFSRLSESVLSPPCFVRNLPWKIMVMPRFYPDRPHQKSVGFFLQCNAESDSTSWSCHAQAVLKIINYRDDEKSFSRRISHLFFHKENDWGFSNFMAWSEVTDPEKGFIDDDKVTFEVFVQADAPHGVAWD

Substance	complex formation with HAUSP (residues 1–206) [1]	complex formation with HAUSP TRAF-like domain [2]	complex formation with full-length HAUSP (full-length HAUSP)
MDM2 (residues 170–423): MDM2 fragment, residues 170–423	form a stable complex	–	–
MDM2 (residues 170–432): 33-kDa fragment of MDM2 (residues 170–432)	–	formed a stable complex	formed a stable complex

— publication PMC1334386 (PLoS Biology, 2006)
